According to US6737383B1, “Herbicidal oxadiazolidines” (priority 1999, dated 2004):

Key:
bedstraw = assay: Test B pre/postemergence bedstraw; assay type: in vivo, Galium aparine
Procedure, shortened: (§1)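 Response is a visual 0-to-10 score relative to untreated plants, where 0 means no effect and 10 means complete control, taken twelve to sixteen days after application. Treatments went onto soil at planting and onto foliage of 1- to 4-leaf plants, using a surfactant-containing non-phytotoxic solvent.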

soybean = assay: Test B pre/postemergence soybean; assay type: in vivo, Glycine max
Procedure, shortened: as §1

purple nutsedge = assay: Test B pre/postemergence purple nutsedge; assay type: in vivo, Cyperus rotundus
Procedure, shortened: as §1

corn = assay: Test B pre/postemergence corn; assay type: in vivo, Zea mays
Procedure, shortened: as §1

wheat = assay: Test B pre/postemergence wheat; assay type: in vivo, Triticum aestivum
Procedure, shortened: as §1

smallflower flatsedge = assay: Test B flood test smallflower flatsedge; assay type: in vivo, Cyperus difformis
Procedure, shortened: (§2)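 Plants were grown to the 2-leaf stage before treatment with test chemical, then held in a greenhouse for twelve to sixteen days. Injury was visually rated against untreated controls on a 0–10 scale, where 0 is no effect and 10 is complete control.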

rape = assay: Test B pre/postemergence rape; assay type: in vivo, Brassica napus
Procedure, shortened: as §1

giant foxtail = assay: Test B pre/postemergence giant foxtail; assay type: in vivo, Setaria faberii
Procedure, shortened: as §1

blackgrass = assay: Test B pre/postemergence blackgrass; assay type: in vivo, Alopecurus myosuroides
Procedure, shortened: as §1

duck salad = assay: Test B flood test duck salad; assay type: in vivo, Heteranthera limosa
Procedure, shortened: as §2

rice = assay: Test B flood test rice; assay type: in vivo, Oryza sativa
Procedure, shortened: as §2

surinam grass = assay: Test B pre/postemergence surinam grass; assay type: in vivo, Brachiaria decumbens
Procedure, shortened: as §1

velvetleaf = assay: Test B pre/postemergence velvetleaf; assay type: in vivo, Abutilon theophrasti
Procedure, shortened: as §1

cocklebur = assay: Test B pre/postemergence cocklebur; assay type: in vivo, Xanthium strumarium
Procedure, shortened: as §1

bamyardgrass = assay: Test B flood test barnyardgrass; assay type: in vivo, Echinochloa crus-galli
Procedure, shortened: as §2

crabgrass = assay: Test B pre/postemergence crabgrass; assay type: in vivo, Digitaria sanguinalis
Procedure, shortened: as §1

sugar beet = assay: Test B pre/postemergence sugar beet; assay type: in vivo, Beta vulgaris
Procedure, shortened: as §1

[1] = Preemergence, Rate 62 g/ha, scale of 0 to 10 where 0 is no effect and 10 is complete control
[2] = Preemergence, Rate 250 g/ha, scale of 0 to 10 where 0 is no effect and 10 is complete control
[3] = Preemergence, Rate 500 g/ha, scale of 0 to 10 where 0 is no effect and 10 is complete control
[4] = Rate 62 g/ha, Postemergence, scale 0 to 10 (0 no effect, 10 complete control)
[5] = Rate 125 g/ha, Postemergence, scale of 0 to 10 where 0 is no effect and 10 is complete control
[6] = Rate 250 g/ha, Postemergence, scale of 0 to 10 where 0 is no effect and 10 is complete control
[7] = Rate 500 g/ha, Postemergence, scale 0 to 10, 0 no effect, 10 complete control
[8] = Rate 62 g/ha, headed Pre-emergence (flood test species), scale 0 to 10 (0 no effect, 10 complete control)
[9] = Rate 125 g/ha, Pre-emergence, flood test species, scale 0 to 10 where 0 is no effect and 10 is complete control
[10] = Rate 250 g/ha, Pre-emergence, flood-test species, scale 0 to 10, 0 is no effect, 10 is complete control
[11] = Rate 500 g/ha, Pre-emergence, flood test species, scale 0 to 10 (0 no effect, 10 complete control)

CCN(C(=O)n1oc(=O)n(Cc2ccco2)c1=O)C1CCCCC1 [Compound 312]
0: Bedstraw plant response rating (bedstraw; [1]) | Bedstraw plant response rating (0 to 10 scale) (bedstraw; Preemergence, Rate 125 g/ha) | Bedstraw plant response rating (bedstraw; [2]) | Bedstraw plant response rating (bedstraw; [3]) | Bedstraw plant response rating (bedstraw; [4]) | Bedstraw plant response rating (bedstraw; [5]) | Plant response rating, Bedstraw (bedstraw; [6]) | Soybean plant response rating (soybean; [1]) | Soybean plant response rating (0 to 10 scale) (soybean; Preemergence, Rate 125 g/ha) | Soybean plant response rating (soybean; [2]) | Soybean plant response rating (soybean; [3]) | Nutsedge plant response rating (purple nutsedge; [1]) | Nutsedge plant response rating (0 to 10 scale) (purple nutsedge; Preemergence, Rate 125 g/ha) | Nutsedge plant response rating (purple nutsedge; [2]) | Nutsedge plant response rating (purple nutsedge; [3]) | Nutsedge plant response rating (purple nutsedge; [4]) | Nutsedge plant response rating (purple nutsedge; [5]) | Plant response rating, Nutsedge (purple nutsedge; [6]) | Corn plant response rating (corn; [1]) | Corn plant response rating (0 to 10 scale) (corn; Preemergence, Rate 125 g/ha) | Corn plant response rating (corn; [2]) | Corn plant response rating (corn; [3]) | Corn plant response rating (corn; [4]) | Corn plant response rating (corn; [5]) | Plant response rating, Corn (corn; [6]) | Corn plant response rating (corn; [7]) | Wheat plant response rating (wheat; [1]) | Wheat plant response rating (0 to 10 scale) (wheat; Preemergence, Rate 125 g/ha) | Wheat plant response rating (wheat; [2]) | Wheat plant response rating (wheat; [3]) | Wheat plant response rating (wheat; [4]) | Wheat plant response rating (wheat; [5]) | Plant response rating, Wheat (wheat; [6]) | S. Flatsedge plant response rating (smallflower flatsedge; [8]) | S. Flatsedge plant response rating (smallflower flatsedge; [9]) | S. Flatsedge plant response rating (smallflower flatsedge; [10]) | S. Flatsedge plant response rating (smallflower flatsedge; [11]) | Rape plant response rating (rape; [1]) | Rape plant response rating (0 to 10 scale) (rape; Preemergence, Rate 125 g/ha) | Rape plant response rating (rape; [2]) | Rape plant response rating (rape; [3]) | Rape plant response rating (rape; [4]) | Rape plant response rating (rape; [5]) | Plant response rating, Rape (rape; [6]) | Giant foxtail plant response rating (giant foxtail; [1]) | Giant foxtail plant response rating (0 to 10 scale) (giant foxtail; Preemergence, Rate 125 g/ha) | Giant foxtail plant response rating (giant foxtail; [2]) | Giant foxtail plant response rating (giant foxtail; [3]) | Giant foxtail plant response rating (giant foxtail; [4]) | Giant foxtail plant response rating (giant foxtail; [5]) | Plant response rating, Giant foxtail (giant foxtail; [6]) | Blackgrass plant response rating (blackgrass; [1]) | Blackgrass plant response rating (0 to 10 scale) (blackgrass; Preemergence, Rate 125 g/ha) | Blackgrass plant response rating (blackgrass; [2]) | Blackgrass plant response rating (blackgrass; [3]) | Blackgrass plant response rating (blackgrass; [4]) | Blackgrass plant response rating (blackgrass; [5]) | Plant response rating, Blackgrass (blackgrass; [6]) | Blackgrass plant response rating (blackgrass; [7]) | Ducksalad plant response rating (duck salad; [8]) | Ducksalad plant response rating (duck salad; [9]) | Ducksalad plant response rating (duck salad; [10]) | Ducksalad plant response rating (duck salad; [11]) | Rice plant response rating (rice; [8]) | Rice plant response rating (rice; [9]) | Rice plant response rating (rice; [10]) | Rice plant response rating (rice; [11]) | B. signalgrass plant response rating (surinam grass; [1]) | B. signalgrass plant response rating (0 to 10 scale, 0 is no effect, 10 is complete control) (surinam grass; Preemergence, Rate 125 g/ha) | B. signalgrass plant response rating (surinam grass; [2]) | B. signalgrass plant response rating (surinam grass; [3]) | B. signalgrass plant response rating (surinam grass; [4]) | B. signalgrass plant response rating (surinam grass; [5]) | Plant response rating, B. signalgrass (surinam grass; [6]) | B. signalgrass plant response rating (surinam grass; [7]) | Velvetleaf plant response rating (velvetleaf; [1]) | Velvetleaf plant response rating (0 to 10 scale) (velvetleaf; Preemergence, Rate 125 g/ha) | Velvetleaf plant response rating (velvetleaf; [2]) | Velvetleaf plant response rating (velvetleaf; [3]) | Velvetleaf plant response rating (velvetleaf; [4]) | Velvetleaf plant response rating (velvetleaf; [5]) | Plant response rating, Velvetleaf (velvetleaf; [6]) | Cocklebur plant response rating (cocklebur; [1]) | Cocklebur plant response rating (0 to 10 scale) (cocklebur; Preemergence, Rate 125 g/ha) | Cocklebur plant response rating (cocklebur; [2]) | Cocklebur plant response rating (cocklebur; [3]) | Cocklebur plant response rating (cocklebur; [4]) | Cocklebur plant response rating (cocklebur; [5]) | Plant response rating, Cocklebur (cocklebur; [6]) | Cocklebur plant response rating (cocklebur; [7]) | Barnyardgrass plant response rating (bamyardgrass; [8]) | Barnyardgrass plant response rating (bamyardgrass; [9]) | Barnyardgrass plant response rating (bamyardgrass; [10]) | Barnyardgrass plant response rating (bamyardgrass; [11]) | Crabgrass plant response rating (crabgrass; [1]) | Crabgrass plant response rating (0 to 10 scale) (crabgrass; Preemergence, Rate 125 g/ha) | Crabgrass plant response rating (crabgrass; [2]) | Crabgrass plant response rating (crabgrass; [3]) | Crabgrass plant response rating (crabgrass; [4]) | Crabgrass plant response rating (crabgrass; [5]) | Plant response rating, Crabgrass (crabgrass; [6]) | Sugarbeets plant response rating (sugar beet; [1]) | Sugarbeets plant response rating (0 to 10 scale) (sugar beet; Preemergence, Rate 125 g/ha) | Sugarbeets plant response rating (sugar beet; [2]) | Sugarbeets plant response rating (sugar beet; [3]) | Sugarbeets plant response rating (sugar beet; [4]) | Sugarbeets plant response rating (sugar beet; [5]) | Plant response rating, Sugarbeets (sugar beet; [6])
2: Soybean plant response rating (soybean; [4]) | Soybean plant response rating (soybean; [5])
3: Plant response rating, Soybean (soybean; [6])
